Patent US20200338082A1, “FORMULATIONS, SYSTEMS, AND METHODS FOR THERAPEUTIC TREATMENT” (priority 2017, published 2020)
Counter-ions that a name gives are not always drawn.

Experiment: Solubility of chemotherapeutic agents in solubilizing excipients and excipient blends
Format: physicochemical
Settings: for solubility in organic blends tested: all organic blends: PEG400/Tween, Cremophor or Solutol/PEG400, Cremophor or Solutol/DMA or ethanol/PEG400; for solubility in DMA: compound pre-dissolved in dimethylacetamide (DMA)
Method: Eleven compounds and seven solubilizing excipients were obtained from commercial sources (see Table 1). […] The excipients listed comprise all of the organic solubilizers currently approved by the FDA for intravenous use in human patients.
Concentration targets were calculated based on providing the same amount of drug used clinically over the time period typically allotted for each compound (see Table 2 for target concentrations). Each solubilizing mixture was started at the target concentration, and if ineffective, diluted 2-fold successively until solubilization was achieved (sometimes with the help of gentle heating, mixing, or sonication), or until the solution was tested at 1:16 the target concentration, in which case further testing was halted (this concentration is approximately what would be required to hit a target dose with a daily cartridge exchange in a delivery device).
Three primary formulation combinations were tested in this example: • Solvent and co-solvent systems (PEG400 and Tween® 20 or Tween® 80) • Surfactant and co-solvent systems (Cremophor® or Solutol® and PEG400) • Surfactant and solvent/co-solvent systems (Cremophor® or Solutol® and DMA or ethanol and PEG400) For the first two combinations, mixtures were made upfront and solubility of each compound tested within. For the third, the compound was pre-dissolved in either DMA or ethanol and the remaining components then added as a mixture.

SMILES	solubility in DMA	solubility in organic blends tested	further results
O=c1[nH]cc(F)c(=O)[nH]1 [5-FU, fluorouracil]	–	insoluble in all of the organic blends tested	–
N.N.O=C([O-])C1(C(=O)[O-])CCC1.[Pt+2] [carboplatin]	–	insoluble in all of the organic blends tested	–
Nc1ccn([C@@H]2O[C@H](CO)[C@@H](O)C2(F)F)c(=O)n1 [gemcitabine hydrochloride]	–	insoluble in all of the organic blends tested	–
Nc1ccn([C@@H]2O[C@H](CO)[C@@H](O)C2(F)F)c(=O)n1 [gemcitabine]	–	–	solubility of free base instead of the salt (free base versus hydrochloride salt): increased solubility
CCc1c2c(nc3ccc(OC(=O)N4CCC(N5CCCCC5)CC4)cc13)-c1cc3c(c(=O)n1C2)COC(=O)[C@]3(O)CC [irinotecan]	–	insoluble in all of the organic blends tested	–

More lines, main results first:

solubility in DMA	SMILES	solubility in organic blends tested	further results
sufficient to solubilize	CC(=O)O[C@@]12CO[C@@H]1C[C@H](O)[C@@]1(C)C(=O)[C@H](O)C3=C(C)[C@@H](OC(=O)[C@H](O)[C@@H](NC(=O)OC(C)(C)C)c4ccccc4)C[C@@](O)([C@@H](OC(=O)c4ccccc4)[C@H]21)C3(C)C [docetaxel]	–	–
sufficient to solubilize	COc1cc([C@@H]2c3cc4c(cc3[C@@H](O[C@@H]3O[C@@H]5CO[C@@H](C)O[C@H]5[C@H](O)[C@H]3O)[C@H]3COC(=O)[C@H]23)OCO4)cc(OC)c1O [etoposide]	–	–
sufficient to solubilize	CN(Cc1cnc2nc(N)nc(N)c2n1)c1ccc(C(=O)N[C@@H](CCC(=O)O)C(=O)O)cc1 [methotrexate]	–	–
sufficient to solubilize	CC(=O)O[C@H]1C(=O)[C@@]2(C)[C@H]([C@H](OC(=O)c3ccccc3)[C@]3(O)C[C@H](OC(=O)[C@H](O)[C@@H](NC(=O)c4ccccc4)c4ccccc4)C(C)=C1C3(C)C)[C@]1(OC(C)=O)CO[C@@H]1C[C@@H]2O [paclitaxel]	–	–
sufficient to solubilize	CC[C@]1(O)C[C@@H]2CN(CCc3c([nH]c4ccccc34)[C@@](C(=O)OC)(c3cc4c(cc3OC)N(C)[C@H]3[C@@](O)(C(=O)OC)[C@H](OC(C)=O)[C@]5(CC)C=CCN6CC[C@]43[C@@H]65)C2)C1 [vinblastine]	–	–
